From ChEMBL document CHEMBL5442219

How the values were obtained:
Settings in all cases: Compound concentration 10 µM
[1] = biological target: T1, 5-hydroxytryptamine receptor 3A (Homo sapiens) (UniProt P46098)
T1 sequence (whole entry): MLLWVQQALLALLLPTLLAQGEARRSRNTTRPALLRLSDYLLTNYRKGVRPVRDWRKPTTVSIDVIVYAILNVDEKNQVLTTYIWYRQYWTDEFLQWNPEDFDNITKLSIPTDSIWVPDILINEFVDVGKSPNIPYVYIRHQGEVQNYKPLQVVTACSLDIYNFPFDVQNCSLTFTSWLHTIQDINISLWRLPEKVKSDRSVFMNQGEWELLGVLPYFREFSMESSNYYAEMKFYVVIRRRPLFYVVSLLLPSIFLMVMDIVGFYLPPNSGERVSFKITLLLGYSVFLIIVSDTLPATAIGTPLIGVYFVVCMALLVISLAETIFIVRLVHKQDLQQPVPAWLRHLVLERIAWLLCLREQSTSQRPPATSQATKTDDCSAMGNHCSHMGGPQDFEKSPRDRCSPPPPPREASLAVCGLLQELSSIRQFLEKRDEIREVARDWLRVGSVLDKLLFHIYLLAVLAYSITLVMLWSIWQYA
Description: PDSP Primary Binding target: HTR3A - Compounds are tested at 10 uM concentration, plate are incubated at room temperature in the dark for 90 minutes. Reaction are stopped by vacuum filtration onto 0.3% polyethyleneimine soaked filter mats using Filtermate harvester. Scintilation cocktail is then melted onto microwave-dried filters on a hot plate and the radio activity is counted in Microbia counter.

[2] = biological target: Beta-3 adrenergic receptor (Homo sapiens) (UniProt P13945)
Chain of Beta-3 adrenergic receptor (Homo sapiens) (P13945 whole entry, looked up): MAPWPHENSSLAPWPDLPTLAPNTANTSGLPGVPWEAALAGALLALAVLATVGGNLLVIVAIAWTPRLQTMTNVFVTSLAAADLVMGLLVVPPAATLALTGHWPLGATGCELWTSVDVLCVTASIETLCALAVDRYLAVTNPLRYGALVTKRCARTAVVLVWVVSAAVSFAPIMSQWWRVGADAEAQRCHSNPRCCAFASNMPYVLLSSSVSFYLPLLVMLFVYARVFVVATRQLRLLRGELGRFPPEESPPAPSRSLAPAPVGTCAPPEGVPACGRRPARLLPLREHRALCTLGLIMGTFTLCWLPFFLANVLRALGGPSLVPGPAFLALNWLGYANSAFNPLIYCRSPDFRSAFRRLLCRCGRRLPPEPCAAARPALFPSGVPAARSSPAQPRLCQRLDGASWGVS
Description: PDSP Primary Binding target: ADRB3 - Compounds are tested at 10 uM concentration, plate are incubated at room temperature in the dark for 90 minutes. Reaction are stopped by vacuum filtration onto 0.3% polyethyleneimine soaked filter mats using Filtermate harvester. Scintilation cocktail is then melted onto microwave-dried filters on a hot plate and the radio activity is counted in Microbia counter.

[3] = biological target: Histamine H2 receptor (Homo sapiens) (UniProt P25021)
Chain of Histamine H2 receptor (Homo sapiens) (P25021 whole entry): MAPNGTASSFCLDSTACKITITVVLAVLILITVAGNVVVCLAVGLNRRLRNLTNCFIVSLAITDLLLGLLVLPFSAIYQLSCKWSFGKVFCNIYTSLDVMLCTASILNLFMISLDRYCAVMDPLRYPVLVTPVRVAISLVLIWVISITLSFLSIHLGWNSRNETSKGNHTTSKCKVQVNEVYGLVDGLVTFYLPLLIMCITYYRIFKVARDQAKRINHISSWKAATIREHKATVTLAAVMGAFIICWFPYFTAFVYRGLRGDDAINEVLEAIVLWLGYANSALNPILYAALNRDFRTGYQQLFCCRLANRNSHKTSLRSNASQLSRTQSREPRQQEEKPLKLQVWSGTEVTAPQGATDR
Description: PDSP Primary Binding target: HRH2 - Compounds are tested at 10 uM concentration, plate are incubated at room temperature in the dark for 90 minutes. Reaction are stopped by vacuum filtration onto 0.3% polyethyleneimine soaked filter mats using Filtermate harvester. Scintilation cocktail is then melted onto microwave-dried filters on a hot plate and the radio activity is counted in Microbia counter.

Compound	inhibition [1]	inhibition [2]	inhibition [3]
COc1ccc(NC(=O)c2ccc(-c3ccc(-c4noc(C)n4)cc3C)cc2)cc1OCCN(C)C	5.18%		
Cc1nc(C#Cc2ccnc(Cl)c2)c(C)n1-c1ccc(OC(F)(F)F)cc1	-5.17%	63%	10.4%
CCCNS(=O)(=O)Nc1ncnc(OCCOc2ncc(Br)cn2)c1-c1ccc(Br)cc1		42.6%	
COc1ccc(CNC(=O)c2cc(-c3cncc(Cl)c3)cnc2-c2ccccn2)nc1OC			-5.76%
Cc1cn2cc(CC(=O)N3CCC4(CC3)CN(Cc3ccc(-n5nccn5)cc3Cl)C4)nc2s1	1.22%	25.6%	60.1%
Cc1cc(C)c(N)c(C#Cc2cccc(F)c2)n1	-2.76%		
NC[C@H](O)c1ccc(O)c(O)c1	-8.31%		
O=C(O)c1cc(-c2ccc(C3CCNCC3)cc2)c2ccc(-c3ccc(C(F)(F)F)cc3)cc2c1	21.6%		
CC(C)NCC(O)COc1cccc2[nH]ccc12 (stereo not given)	-0.98%		
Cc1c(F)cccc1NC(=O)Nc1ccc(Cl)c(S(=O)(=O)[C@H]2CCCNC2)c1O		17.8%	18.3%
Brc1c(NC2=NCCN2)ccc2nccnc12	-5.05%		
O=C1N/C(=N/c2ccccc2F)S/C1=C\c1ccc(C(=O)O)cc1	-3.21%		
CC(C)Oc1ccccc1C(=O)Nc1ccccc1C(=O)Nc1cccc(S(=O)(=O)C(F)(F)F)c1	-3.89%	1.49%	36%
COc1ccccc1N1CCN(CCCCNC(=O)c2ccc3ccccc3c2)CC1	0.02%		
CNc1nc(NCc2ccc(NS(C)(=O)=O)cc2Cl)cc(-c2ccccn2)n1	-0.08%	15%	18%
Clc1cccc(Cl)c1NC1=NCCN1	5.96%		
CN1CCCC(n2nc(Cc3ccc(Cl)cc3)c3ccccc3c2=O)CC1 (stereo not given)	96.4%	61.5%	22.8%
O=C(O)C1CN(Cc2ccc(-c3nc4cc(Cc5ccccc5F)ccc4s3)c(F)c2)C1	-3.55%	-2.08%	1.06%
N[C@H](C(=O)O)c1ccc(C(=O)O)c(C(=O)O)c1	1.09%	18.2%	-1.13%
COc1ccc2cc(S(=O)(=O)N[C@H](CC(=O)N[C@H](Cc3ccc(CN4[C@H](C)CCC[C@@H]4C)cc3)C(=O)N(C)C(C)C)c3ccc4c(c3)OCO4)ccc2c1	12.8%		
O=C(O)CC1CCC2(CC1)CCN(c1cc(OC(F)(F)F)ccc1Cl)CC2		17.5%	-4.3%
c1cc(CN2CCCNCCNCCCNCC2)ccc1CN1CCCNCCNCCCNCC1	21.9%	34.5%	0.23%
CC(C)[C@H](CO)Nc1nc(Nc2cccc(Cl)c2)c2ncn(C(C)C)c2n1	25.4%		
COc1ccc2[nH]cc(CCNC(C)=O)c2c1	-3.39%		
CN(C)S(=O)(=O)c1ccc(NC(=S)N2CCC(C(O)(c3ccccc3)c3ccccc3)CC2)cc1	-8.86%	57.7%	18.6%

Compound	inhibition [1]	inhibition [2]	inhibition [3]
Cc1c(P(=S)(c2ccccc2)c2ccccc2)n2ccccc2[n+]1C/C=C/c1ccccc1	20.9%	68.2%	76.4%
O=C(O)COc1cccc(CN(Cc2ccc(-n3cccn3)cc2)S(=O)(=O)c2cccnc2)c1			3.71%
CC(C)NC(=O)c1ccc(C#Cc2ccncc2)cn1	-5.94%	29.8%	25.7%
FC(F)(F)c1cccc(-c2noc(-c3cc(-c4ccccc4)c(C(F)(F)F)s3)n2)c1	0.39%	23.6%	16.3%
COc1cc2nc(N3CCN(C(=O)c4ccco4)CC3)nc(N)c2cc1OC	2.09%		
Cc1nn(C)c(C)c1-c1cccc2c1CC[C@H](N(C)C)C2	85.9%		
Cc1cc([C@@H](C)Nc2cccc(-c3cc(C)c(C(=O)N[C@@H](C)C(=O)O)c(C)c3)c2)ccc1Cl		70.7%	22.5%
CN(C)C(=O)N[C@H]1CC[C@H](CCN2CCN(c3cccc(Cl)c3Cl)CC2)CC1	6.73%		
CN1CCC(C(=O)c2cccc(NC(=O)c3c(F)cc(F)cc3F)n2)CC1	20.9%		
CN1CCC(=C2c3ccccc3CC(=O)c3sccc32)CC1	84.5%		
OC[C@H]1O[C@@H](n2cnc3c(NC4CCCC4)ncnc32)[C@H](O)[C@@H]1O	3.29%		
CO[C@@H]1COCC[C@@H]1N[C@@H]1CC[C@@](C(=O)N2CCc3ncc(C(F)(F)F)cc3C2)(C(C)C)C1		47.5%	14.9%
CCOC(=O)c1cc(C#N)c(N2CCC(C(=O)NS(=O)(=O)Cc3ccccc3)CC2)nc1C	3.98%	21.2%	17.2%
NCCc1cn(S(=O)(=O)c2c(Cl)nc3sccn23)c2ccccc12	79.2%		
O=c1ccn([C@@H]2O[C@H](COP(=O)(O)OP(=O)(O)OP(=O)(O)O)[C@@H](O)[C@H]2O)c(=O)[nH]1	-3.36%		
Clc1ccc(CCCOCCCN2CCCCC2)cc1	28.6%	1.84%	33%
N#Cc1c(O)nc(SCc2cccc(F)c2F)nc1C1CC1			6.35%
CCc1cc2c(cc1CC)CC(NC[C@H](O)c1ccc(O)c3[nH]c(=O)ccc13)C2	-4.69%		
CN1C[C@H](C(=O)N[C@]2(C)O[C@@]3(O)[C@@H]4CCCN4C(=O)[C@H](Cc4ccccc4)N3C2=O)C[C@@H]2c3cccc4[nH]cc(c34)C[C@H]21	1.05%		
CN1CCN(c2ccc(Nc3c4ccccc4nc4ccccc34)cc2)CC1	32%		
O=C(O)C1CN(Cc2ccc(OCc3ccc(Cl)c(Cl)c3)cc2)C1	-8.5%	-2.67%	29.6%
Cc1cc(NC(=O)NCCN2CCC(O)(Cc3ccccc3)CC2)c2ccccc2n1	4.17%		
CCC(=O)NCC[C@@H]1CCc2ccc3c(c21)CCO3	6.73%		
CC1CCN(CC[C@H]2CCCN2S(=O)(=O)c2cccc(O)c2)CC1	-9.3%		
C[N+]1(C)[C@@H]2C[C@@H](OC(=O)C(O)(c3cccs3)c3cccs3)C[C@H]1[C@@H]1O[C@@H]12	14.3%		

Compound	inhibition [1]	inhibition [2]	inhibition [3]
COC(=O)[C@H]1[C@H]2C[C@H]3c4[nH]c5ccccc5c4CCN3C[C@H]2CC[C@@H]1O	-2.94%		
CCCCCCCCCCCCC/C=C/[C@@H](O)[C@@H](N)COP(=O)(O)O	-1.93%		
FC(F)(F)c1c(N2CCC(c3ccccc3)CC2)ccn2c(CC3CC3)nnc12		4.3%	12.3%
O=C1O[C@]2(CC[C@H](C(=O)Nc3ccn(-c4ccccc4F)n3)CC2)c2cnccc21		3.84%	2.76%
CCc1nn2c(C)cc(C)nc2c1Cc1ccc(-c2nnc(C3CCNCC3)o2)cc1	93.4%		
Cc1ccc2c(c1)c1c(n2CCc2ccc(C)nc2)CCN(C)C1	21.6%	0.23%	96.5%
OCc1cc(C(O)CNCCCCCCOCCCCc2ccccc2)ccc1O (stereo not given)	4.21%		
CN[C@@H]1CCc2[nH]c3ccc(C(N)=O)cc3c2C1	24.7%		
Cc1ccccc1N1CCN(S(=O)(=O)C[C@]23CC[C@H](C[C@@H]2NC(=O)[C@@H](N)CCS(C)(=O)=O)C3(C)C)CC1	-6.48%		
COc1cccc(-c2c(C)n(Cc3c(F)cccc3C(F)(F)F)c(=O)n(C[C@H](NCCCC(=O)O)c3ccccc3)c2=O)c1F		44.5%	
CCc1nn(CCCN2CCN(c3cccc(Cl)c3)CC2)c(=O)n1CCOc1ccccc1	3.68%		
Cc1ccc(O)c([C@H](CCN(C(C)C)C(C)C)c2ccccc2)c1	-0.33%		
N#Cc1c[nH]c2c(C(=O)N3CCN(CCc4ccc(F)cc4)CC3)cccc12	-8.41%	22.4%	4.27%
Cc1cc(C)cc(-c2cnc3cc(Cl)c(-c4cccc(O)c4)cc3c2OCCCN)c1	43.9%	99.4%	81.6%
CCC[C@H](Oc1cc(C)c(-n2cc(C(F)(F)F)cn2)c(C)c1)c1ccc(C(=O)NCCC(=O)O)cc1		65.4%	-8.24%
CCCn1c(=O)c2nc(C34CC5CC(CC3C5)C4)[nH]c2n(CCC)c1=O	-9.26%		
O=c1ccc2ccc(OCCCCN3CCN(c4cccc5sccc45)CC3)cc2[nH]1	81.9%		
NC(=O)[C@@H]1CCCN1C(=O)[C@H](Cc1c[nH]cn1)NC(=O)[C@@H]1CCC(=O)N1	8.73%		
N#Cc1c(N)nc(SCc2csc(-c3ccc(Cl)cc3)n2)c(C#N)c1-c1ccc(OCCO)cc1	1.79%		
C[C@]1(C(=O)N(CCCC(=O)O)Cc2cccc(Cl)c2)CCN1C(=O)c1csc2ccccc12	-7.18%	-0.98%	19.3%
N#Cc1ccc(NC(=O)Nc2ccccc2Br)c2nn[nH]c12	4.92%	75%	17.7%
CS(=O)(=O)NC[C@H]1CC[C@H](Nc2nc3c(s2)CCSc2ccccc2-3)CC1	0.88%	45.4%	-2.3%
Cc1nc(-c2ccc(C(F)(F)F)cc2)sc1COc1ccc([C@H](CC(=O)O)c2ccon2)cc1			15.9%
CC1=C2C[C@H]3[C@@H](CC=C4C[C@@H](O)CC[C@@]43C)[C@@H]2CC[C@]12O[C@@H]1C[C@H](C)CN[C@H]1[C@H]2C		38.6%	20.5%
c1nc(CC2CCNCC2)c[nH]1	6.29%		
